Target: T1, huDHOase (Homo sapiens, UniProt P27708)
T1 construct: huDHOase1456-1846-NdeI-N; made in house; host or cells: E. coli BL21(DE3)
T1 sequence (P27708 1456-1846): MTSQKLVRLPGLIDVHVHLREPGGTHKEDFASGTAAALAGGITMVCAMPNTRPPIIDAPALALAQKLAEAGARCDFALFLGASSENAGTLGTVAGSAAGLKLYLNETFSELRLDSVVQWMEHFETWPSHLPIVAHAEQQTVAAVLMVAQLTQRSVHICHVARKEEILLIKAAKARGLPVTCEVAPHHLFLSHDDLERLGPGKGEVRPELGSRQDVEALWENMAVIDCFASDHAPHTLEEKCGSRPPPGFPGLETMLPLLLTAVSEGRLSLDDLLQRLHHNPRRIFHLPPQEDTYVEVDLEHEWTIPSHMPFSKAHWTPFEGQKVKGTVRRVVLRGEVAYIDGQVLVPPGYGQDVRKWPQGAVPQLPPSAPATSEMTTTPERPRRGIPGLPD
Assay: rapid spectrophotometric DHOase enzyme assay (hydrolysis of DHO)
Type: biochemical
Settings: 200 μM compound in the standard assay
Experimental: A rapid spectrophotometric assay was used to determine the activity of DHOase. Briefly, the hydrolysis of DHO was measured at 25 °C as the decrease in absorbance at 230 nm. The purified DHOase was added to a 2 mL solution containing 0.5 mM DHO and 100 mM Tris–HCl at pH 8.0 to start the reaction. […] The hydrolysis of DHO was monitored using a UV/Vis spectrophotometer (Hitachi U 3300; Hitachi High-Technologies, Tokyo, Japan). A unit of activity was defined as the amount of enzyme catalyzing the hydrolysis of 1 μmol DHO/min, and the specific activity was expressed in terms of units of activity per mg of enzyme. The kinetic parameters Km and Vmax were determined from a nonlinear plot by fitting the hydrolyzing rate from individual experiments to the Michaelis–Menten equation (Enzyme Kinetics module of Sigma-Plot; Systat Software, Chicago, IL, USA).

CC1=CC(=O)c2c(O)cccc2C1=O [PLU, plumbagin]
decrease of the activity of huDHOase: 30%

Reference: publication PMC8267945, “Plumbagin, a Natural Product with Potent Anticancer Activities, Binds to and Inhibits Dihydroorotase, a Key Enzyme in Pyrimidine Biosynthesis” (International Journal of Molecular Sciences, 2021)
